According to patent US20150005311A1, “IP receptor agonist heterocyclic compounds” (NOVARTIS AG, priority 2012, published 2015):

The compounds below were run against T1, IP receptor (Homo sapiens, UniProt P43119) (assay: cAMP accumulation in CHO cells stably expressing the IP receptor (CHO-IP), PerkinElmer AlphaScreen assay). Settings: 1 hour at room temperature, 4-parameter logistic fit.
T1 construct: expressed in transfected cells; host or cells: CHO cells stably expressing the IP receptor (CHO-IP)
T1 sequence (P43119 whole entry): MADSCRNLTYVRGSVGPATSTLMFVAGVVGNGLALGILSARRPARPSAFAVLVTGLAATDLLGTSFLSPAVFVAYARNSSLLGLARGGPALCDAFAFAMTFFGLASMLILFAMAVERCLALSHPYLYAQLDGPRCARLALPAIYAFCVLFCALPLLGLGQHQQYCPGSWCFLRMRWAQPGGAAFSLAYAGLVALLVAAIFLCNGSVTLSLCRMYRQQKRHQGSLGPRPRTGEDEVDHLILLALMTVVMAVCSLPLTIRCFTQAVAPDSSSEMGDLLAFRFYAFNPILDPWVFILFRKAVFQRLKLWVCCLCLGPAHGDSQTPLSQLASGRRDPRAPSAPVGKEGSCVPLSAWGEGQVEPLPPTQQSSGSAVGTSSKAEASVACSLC
Format: cell-based
Procedure: Activity of compounds at the IP receptor (IP receptor) is assessed by measuring cAMP accumulation in CHO cells stably expressing the IP receptor (CHO-IP) using the PerkinElmer AlphaScreen assay. This technology measures the endogenous production of cAMP, in a non-radioactive luminescence proximity homogenous assay. A biological reaction occurs between streptavidin coated donor beads, biotinylated cAMP and anti-cAMP acceptor beads, bringing the donor and acceptor beads close enough together so that upon excitation a fluorescence signal is produced. On production of endogenous cAMP, competition between the biotinylated cAMP and cellular-derived cAMP causes a reduction in the fluorescent signal. The reduction in signal is proportional to the amount of cAMP being produced, thus it is possible to quantify the amount of cAMP being produced on stimulation with agonist.
Test and reference compounds are prepared at 100×[final] in 100% DMSO, and diluted 1:3 using a Biomek Fx (Beckman Coulter). This is followed by an intermediate dilution to give 5×[final] in assay buffer (HBSS containing 5 mM HEPES, 0.1% (w/v) BSA). 5 μL of 5×[final] test compounds, reference compounds and buffer/DMSO control are then transferred to a 384-well white OptiPlate, containing 20 μL CHO-IP cell suspension (15,000 cells/well, prepared from frozen), and plate is incubated at room temperature for 1 hour. A cAMP standard curve is constructed for each experiment (concentration range of 10000 nM to 0.001 nM, in assay buffer) and 25 μL of each concentration added to the last two columns of the assay plate. The incubation is terminated by the addition of lysis buffer (dH2O; 0.3% (v v^−1) Tween-20) containing 20 units mL^−1 streptavidin coated donor beads and biotinylated cAMP (pre-incubated for 30 minutes) and 20 units mL^−1 anti-cAMP acceptor beads, which are added to the lysis buffer just before addition to the assay plate. The assay plate is then incubated at room temperature in the dark, for 60 minutes with gentle shaking, and read on the Envision plate reader (Perkin Elmer).
The raw data of the reference compounds, test compounds and controls are converted into cAMP concentrations, using the cAMP standard curve, in GraphPadPrism (GraphPad Software Inc). EC50 as well as maximal values of the agonist curves are determined using a 4-parameter logistic equation. The % maximum response values of all test compounds are determined using the top of the treprostinil concentration-response curve.

| EC50 [nM] | Structure (SMILES) |
| --- | --- |
| 0.11 | Cc1ccc(-c2nc3c(nc2-c2ccc(C)cc2)N(CCCCCCc2nnn[nH]2)CCC3)cc1 [Example 1, 5-(6-(1H-Tetrazol-5-yl)hexyl)-2,3-di-p-tolyl-5,6,7,8-tetrahydropyrido[2,3-b]pyrazine] |
| 0.86 | Cc1ccc(-c2nc3c(nc2-c2ccc(C)cc2)N(CCCCCc2nnn[nH]2)CC(O)C3)cc1 (single isomer, unassigned) [Example 4b, (R)- or (S)-5-(5-(1H-Tetrazol-5-yl)pentyl)-2,3-di-p-tolyl-5,6,7,8-tetrahydropyrido[2,3-b]pyrazin-7-ol]] |
| 0.62 | Cc1ccc(-c2nc3c(nc2-c2ccc(C)cc2)N(CCCCCc2nnn[nH]2)CC(O)C3)cc1 (single isomer, unassigned) [Example 4a, (R)- or (S)-5-(5-(1H-Tetrazol-5-yl)pentyl)-2,3-di-p-tolyl-5,6,7,8-tetrahydropyrido[2,3-b]pyrazin-7-ol]] |
| 1.71 | Cc1ccc(-c2nc3c(nc2-c2ccc(C)cc2)N(CCCCCCc2nnn[nH]2)CC(O)C3)cc1 (single isomer, unassigned) [Example 3b, (R)- or (S)-5-(6-(1H-tetrazol-5-yl)hexyl)-2,3-di-p-tolyl-5,6,7,8-tetrahydropyrido[2,3-b]pyrazin-7-ol]] |
| 2.06 | Cc1ccc(-c2nc3c(nc2-c2ccc(C)cc2)N(CCCCCCc2nnn[nH]2)CC(O)C3)cc1 (single isomer, unassigned) [Example 3a, (R)- or (S)-5-(6-(1H-tetrazol-5-yl)hexyl)-2,3-di-p-tolyl-5,6,7,8-tetrahydropyrido[2,3-b]pyrazin-7-ol]] |
| 0.04 | Cc1ccc(-c2nc3c(nc2-c2ccc(C)cc2)N(CCCCCCc2nnn[nH]2)CC(O)C3)cc1 (racemic) [Example 3, rac-5-(6-(1H-Tetrazol-5-yl)hexyl)-2,3-di-p-tolyl-5,6,7,8-tetrahydropyrido[2,3-b]pyrazin-7-ol] |
| 5.63 | Cc1ccc(-c2nc3c(nc2-c2ccc(C)cc2)N(CCCCCc2nnn[nH]2)CC(O)C3)cc1 (racemic) [Example 4, rac-5-(5-(1H-Tetrazol-5-yl)pentyl)-2,3-di-p-tolyl-5,6,7,8-tetrahydropyrido[3,2-b]pyrazin-7-ol] |
| 0.07 | Cc1ccc(-c2nc3c(nc2-c2ccc(C)cc2)N(CCCCCc2nnn[nH]2)CCC3)cc1 [Example 2, 5-(5-(1H-tetrazol-5-yl)pentyl)-2,3-di-p-tolyl-5,6,7,8-tetrahydropyrido[2,3-b]pyrazine] |
